Measured values taken from US5627017A, “Low melting point ionizable epoxy scavengers for residual magenta couplers” (Eastman Kodak Company, priority 1995, dated 1997).

Tests used:
[1] = logP (logarithm of the octanol/water partition coefficient); assay type: physicochemical
Description: Hydrophobic photographic additives are conveniently incorporated in a hydrophilic colloid layer of a photographic element by dissolving the hydrophobic additive in an organic solvent and then dispersing the organic solution in an aqueous solution to form a homogenized dispersion. […] The low hydrophobicity is essential to achieve efficient post-process migration of these compounds from the adjacent non-imaging layers into the magenta imaging layer. The combination of low hydrophobicity and high melting point makes it difficult to prepare stable dispersions of these compounds by homogenization in an aqueous solution even if relatively large amounts of water-immiscible organic solvent is used to dissolve the compounds. The exemplified compounds are accordingly dispersed in the examples of U.S. Ser. No. 08/255,512 by a solid particle dispersion process. In this method size reduction of the epoxy compound is achieved by attrition with media such as zirconia beads instead of by shearing action on a liquid solution. The solid particle dispersion process is relatively inefficient compared to homogenization and often requires several days of grinding in order to achieve the desired level of size reduction.

[2] = Dispersion stability in constant temperature bath at 45 °C; assay type: physicochemical; conditions: 3.0 g epoxide with 1.0 g tri(2-ethylhexyl) phosphate in gelatin/Alkanol XC, E1 disintegrated with significant settling, SI-4 no evidence of settling or macroscopic coagulation
Experimental: 3.0 grams of E1 was combined with 1.0 gram of the water-immiscible organic solvent tri(2-ethylhexyl) phosphate. The mixture was heated until the oil phase was homogeneous. 26.0 grams of a 12% w/w solution of Type IV gelatin in water was combined with 43.8 grams of water and 4.0 grams of Alkanol XC to constitute the aqueous phase. The aqueous phase was maintained at 70° C. The oil phase was combined with the aqueous phase while stirring. The mixture was then passed twice through the microfluidizer at a pressure of 10,000 psi to obtain the dispersion.
Both dispersions were placed in a constant temperature bath set at 45° C.

SMILES | logP [1] | time at which dispersion disintegrated / showed settling or macroscopic coagulation [2]
O=C(CCCCCCCCC1CO1)Oc1ccc(NS(=O)(=O)c2ccc(F)cc2F)cc1 (stereo not shown) [E1] | 4.5 | 6 h
O=C(CCCCCCCCC1CO1)Oc1ccc(NS(=O)(=O)c2ccccc2)cc1 (stereo not shown) [SI-4] | 4.3 | > 12 h
